Data published in PubChem BioAssay (NCI).
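Grown in 96-well plates, cells were treated for 48 hours with each compound at five concentrations. Insufficient inhibition: endpoint recorded as highest concentration tested. GI50 = concentration required for 50% inhibition of growth. TGI: total growth inhibition.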

Key:
Assay in all cases: inhibition of tumour cell growth, NCI panel, 48 h
OVCAR-8 ovarian = tested on: OVCAR-8 ovarian
IGROV1 ovarian = tested on: IGROV1 ovarian
HS 578T breast = tested on: HS 578T breast
786-0 renal = tested on: 786-0 renal
MALME-3M melanoma = tested on: MALME-3M melanoma
BT-549 breast = tested on: BT-549 breast
HCT-15 colon = tested on: HCT-15 colon
HT29 colon = tested on: HT29 colon
TK-10 renal = tested on: TK-10 renal
KM12 colon = tested on: KM12 colon
RPMI-8226 leukemia = tested on: RPMI-8226 leukemia
RXF 393 renal = tested on: RXF 393 renal
SN12C renal = tested on: SN12C renal
NCI-H226 lung = tested on: NCI-H226 lung
NCI/ADR-RES ovarian = tested on: NCI/ADR-RES ovarian
HCC-2998 colon = tested on: HCC-2998 colon
ACHN renal = tested on: ACHN renal
OVCAR-3 ovarian = tested on: OVCAR-3 ovarian
EKVX NSCLC = tested on: EKVX NSCLC
HOP-92 NSCLC = tested on: HOP-92 NSCLC
SR leukemia = tested on: SR leukemia
SK-MEL-2 melanoma = tested on: SK-MEL-2 melanoma
MDA-MB-231 breast = tested on: MDA-MB-231 breast
UACC-62 melanoma = tested on: UACC-62 melanoma
T-47D breast = tested on: T-47D breast
HOP-62 NSCLC = tested on: HOP-62 NSCLC
DU-145 prostate = tested on: DU-145 prostate
A498 renal = tested on: A498 renal
A549 NSCLC = tested on: A549 NSCLC
COLO 205 colon = tested on: COLO 205 colon
MCF7 breast = tested on: MCF7 breast
UO-31 renal = tested on: UO-31 renal
CCRF-CEM leukemia = tested on: CCRF-CEM leukemia
SF-268 CNS = tested on: SF-268 CNS
SW-620 colon = tested on: SW-620 colon
SNB-75 CNS = tested on: SNB-75 CNS
HL-60(TB) leukemia = tested on: HL-60(TB) leukemia
U251 CNS = tested on: U251 CNS
SK-MEL-28 melanoma = tested on: SK-MEL-28 melanoma
PC-3 prostate = tested on: PC-3 prostate
SNB-19 CNS = tested on: SNB-19 CNS
NCI-H460 lung = tested on: NCI-H460 lung
OVCAR-4 ovarian = tested on: OVCAR-4 ovarian
OVCAR-5 ovarian = tested on: OVCAR-5 ovarian
UACC-257 melanoma = tested on: UACC-257 melanoma
K-562 leukemia = tested on: K-562 leukemia
MOLT-4 leukemia = tested on: MOLT-4 leukemia
SK-OV-3 ovarian = tested on: SK-OV-3 ovarian
SF-539 CNS = tested on: SF-539 CNS
NCI-H23 lung = tested on: NCI-H23 lung
SK-MEL-5 melanoma = tested on: SK-MEL-5 melanoma
SF-295 CNS = tested on: SF-295 CNS
NCI-H522 lung = tested on: NCI-H522 lung

## C=CCn1c(SCC(=O)Nc2ccc(C(=O)/C=C/c3cc(OC)c(OC)c(OC)c3)cc2)nnc1-c1ccc(Cl)cc1
OVCAR-8 ovarian
  GI50: 2.79 µM
  TGI: 15 µM
IGROV1 ovarian
  GI50: 2.76 µM
  TGI: 13 µM
HS 578T breast
  GI50: 5.81 µM
  TGI: > 100 µM
786-0 renal
  GI50: 2.16 µM
  TGI: 5.59 µM
MALME-3M melanoma
  GI50: 6.69 µM
  TGI: 61.5 µM
BT-549 breast
  GI50: 2.4 µM
  TGI: 7.79 µM
HCT-15 colon
  GI50: 2.68 µM
  TGI: 18.8 µM
HT29 colon
  GI50: 2.33 µM
  TGI: 5.69 µM
TK-10 renal
  GI50: 7.87 µM
  TGI: 61.3 µM
KM12 colon
  GI50: 1.97 µM
  TGI: 5.23 µM
RPMI-8226 leukemia
  GI50: 0.253 µM
  TGI: 1.03 µM
RXF 393 renal
  GI50: 1.47 µM
  TGI: 3.37 µM
SN12C renal
  GI50: 3.43 µM
  TGI: > 100 µM
NCI-H226 lung
  GI50: 1.94 µM
  TGI: 7.42 µM
NCI/ADR-RES ovarian
  GI50: 4.74 µM
  TGI: > 100 µM
HCC-2998 colon
  GI50: 2.36 µM
  TGI: 5.67 µM
ACHN renal
  GI50: 3.67 µM
  TGI: 22 µM
OVCAR-3 ovarian
  GI50: 2.41 µM
  TGI: 5.93 µM
EKVX NSCLC
  GI50: 2.92 µM
  TGI: 15.5 µM
HOP-92 NSCLC
  GI50: 2.47 µM
  TGI: 11.8 µM
SR leukemia
  GI50: 1.52 µM
  TGI: 7.45 µM
SK-MEL-2 melanoma
  GI50: 4.52 µM
  TGI: 36.6 µM
MDA-MB-231 breast
  GI50: 3.08 µM
  TGI: > 100 µM
UACC-62 melanoma
  GI50: 2.94 µM
  TGI: 25 µM
T-47D breast
  GI50: 2.24 µM
  TGI: 30.6 µM
HOP-62 NSCLC
  GI50: 3.76 µM
  TGI: 23.8 µM
DU-145 prostate
  GI50: 3.73 µM
  TGI: 40.9 µM
A498 renal
  GI50: 2.47 µM
  TGI: 10.6 µM
A549 NSCLC
  GI50: 3.61 µM
  TGI: 17.3 µM
COLO 205 colon
  GI50: 4.92 µM
  TGI: 67.3 µM
MCF7 breast
  GI50: 0.38 µM
  TGI: 11.2 µM
UO-31 renal
  GI50: 1.98 µM
  TGI: 8.34 µM
CCRF-CEM leukemia
  GI50: 2.38 µM
  TGI: 13.3 µM
SF-268 CNS
  GI50: 4.32 µM
  TGI: > 100 µM
SW-620 colon
  GI50: 3 µM
  TGI: > 100 µM
SNB-75 CNS
  GI50: 1.79 µM
  TGI: 12.8 µM
HL-60(TB) leukemia
  GI50: 2.65 µM
  TGI: 11.3 µM
U251 CNS
  GI50: 1.73 µM
  TGI: 4.38 µM
SK-MEL-28 melanoma
  GI50: 4.23 µM
  TGI: 54.6 µM
PC-3 prostate
  GI50: 3.2 µM
  TGI: 26.4 µM
SNB-19 CNS
  GI50: 3.64 µM
  TGI: > 100 µM
NCI-H460 lung
  GI50: 3.41 µM
  TGI: 13.5 µM
OVCAR-4 ovarian
  GI50: 3.1 µM
  TGI: 21 µM
OVCAR-5 ovarian
  GI50: 4.75 µM
  TGI: 67.7 µM
UACC-257 melanoma
  GI50: 6.38 µM
  TGI: 59.6 µM
K-562 leukemia
  GI50: 1.7 µM
  TGI: 10.5 µM
MOLT-4 leukemia
  GI50: 2.66 µM
  TGI: 11.4 µM
SK-OV-3 ovarian
  GI50: 6.01 µM
  TGI: 58.3 µM
SF-539 CNS
  GI50: 2.96 µM
  TGI: 9.83 µM
NCI-H23 lung
  GI50: 2.7 µM
  TGI: 10.5 µM
SK-MEL-5 melanoma
  GI50: 2.53 µM
  TGI: 14.3 µM
SF-295 CNS
  GI50: 4.49 µM
  TGI: 48.8 µM
NCI-H522 lung
  GI50: 3.25 µM
  TGI: 17.4 µM
